# In patent US7335725B2, “Lipopeptides as antibacterial agents” (priority 1999, dated 2008):
# Legend:
# S. aureus = experiment: MIC by NCCLS broth microdilution, S. aureus; assay type: cell-based; details: Mueller-Hinton Broth with 50 mg/L Ca2+, 37° C.
# Description: (§1) Compounds were dissolved in 100% dimethyl sulfoxide and were diluted to the final reaction concentration (0.1 μg/mL-100 μg/mL) in microbial growth media. In all cases the final concentration of dimethyl sulfoxide incubated with cells is less than or equal to 1%. […] The optical densities (OD) of the bacterial cells, which measures bacterial cell growth and proliferation, were measured using a commercial plate reader. The MIC value is defined as the lowest compound concentration inhibiting growth of the test organism.
# E. faecalis = experiment: MIC by NCCLS broth microdilution, E. faecalis; assay type: cell-based; details: Mueller-Hinton Broth with 50 mg/L Ca2+, 37° C.
# Description: as §1
substance,measurement,setting,value
"Boc-protected daptomycin α,β-tridecenoyl amide [Compound 110]",MIC (μg/ml) S. aureus,S. aureus,+++ (the compound has an MIC (μg/ml) of 1 μg/ml or less)
same,MIC (μg/ml) E. faecalis,E. faecalis,"++ (an MIC (μg/ml) or an ED50 (mg/kg) of more than 1 μg/ml or 1 mg/kg, respectively, but less than or equal to 10 μg/ml or 10 mg/kg, respectively)"
